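Results reflect a 48-hour exposure of cells in 96-well plates to compound at five concentrations. TGI is the concentration that stops growth completely.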
Experiments:
Experiment in all cases: inhibition of tumour cell growth, NCI panel, 48 h
[1] = tested on: CAKI-1 renal
[2] = tested on: MDA-N
[3] = tested on: HCT-15 colon
[4] = tested on: MDA-MB-435
[5] = tested on: NCI-H226 lung
[6] = tested on: HCC-2998 colon
[7] = tested on: HL-60(TB) leukemia
[8] = tested on: SNB-75 CNS
[9] = tested on: ACHN renal
[10] = tested on: CCRF-CEM leukemia
[11] = tested on: IGROV1 ovarian
[12] = tested on: EKVX NSCLC
[13] = tested on: DU-145 prostate
[14] = tested on: SK-MEL-2 melanoma
[15] = tested on: M14 melanoma
[16] = tested on: SF-295 CNS
[17] = tested on: U251 CNS
[18] = tested on: KM12 colon
[19] = tested on: UACC-257 melanoma
[20] = tested on: RPMI-8226 leukemia
[21] = tested on: OVCAR-4 ovarian
[22] = tested on: RXF 393 renal
[23] = tested on: SK-MEL-28 melanoma
[24] = tested on: HT29 colon
[25] = tested on: HOP-62 NSCLC
[26] = tested on: MDA-MB-231 breast
[27] = tested on: SF-268 CNS
[28] = tested on: HCT-116 colon
[29] = tested on: A549 NSCLC
[30] = tested on: LOX IMVI melanoma
[31] = tested on: NCI-H23 lung
[32] = tested on: UO-31 renal
[33] = tested on: NCI/ADR-RES ovarian
[34] = tested on: SR leukemia
[35] = tested on: SF-539 CNS
[36] = tested on: 786-0 renal
[37] = tested on: UACC-62 melanoma
[38] = tested on: MCF7 breast
[39] = tested on: OVCAR-8 ovarian
[40] = tested on: BT-549 breast
[41] = tested on: NCI-H460 lung
[42] = tested on: OVCAR-5 ovarian
[43] = tested on: SW-620 colon
[44] = tested on: MALME-3M melanoma
[45] = tested on: SN12C renal
[46] = tested on: PC-3 prostate
[47] = tested on: NCI-H522 lung
[48] = tested on: HOP-92 NSCLC
[49] = tested on: COLO 205 colon
[50] = tested on: T-47D breast
[51] = tested on: K-562 leukemia
[52] = tested on: SK-MEL-5 melanoma
[53] = tested on: SNB-19 CNS
[54] = tested on: HS 578T breast
[55] = tested on: MOLT-4 leukemia
[56] = tested on: OVCAR-3 ovarian
[57] = tested on: A498 renal
[58] = tested on: TK-10 renal
[59] = tested on: SK-OV-3 ovarian

Structure (SMILES): CCc1c(-c2ccc(OC)cc2)c(=O)oc2cc(O)ccc12
- TGI [1]: > 100 µM
- TGI [2]: > 100 µM
- TGI [3]: > 100 µM
- TGI [4]: > 100 µM
- TGI [5]: > 100 µM
- TGI [6]: > 100 µM
- TGI [7]: 32.6 µM
- TGI [8]: > 100 µM
- TGI [9]: > 100 µM
- TGI [10]: > 100 µM
- TGI [11]: > 100 µM
- TGI [12]: > 100 µM
- TGI [13]: > 100 µM
- TGI [14]: > 100 µM
- TGI [15]: 56.8 µM
- TGI [16]: > 100 µM
- TGI [17]: > 100 µM
- TGI [18]: > 100 µM
- TGI [19]: 61.3 µM
- TGI [20]: 47.6 µM
- TGI [21]: > 100 µM
- TGI [22]: > 100 µM
- TGI [23]: > 100 µM
- TGI [24]: > 100 µM
- TGI [25]: > 100 µM
- TGI [26]: > 100 µM
- TGI [27]: > 100 µM
- TGI [28]: > 100 µM
- TGI [29]: > 100 µM
- TGI [30]: > 100 µM
- TGI [31]: > 100 µM
- TGI [32]: 68.4 µM
- TGI [33]: > 100 µM
- TGI [34]: 58.4 µM
- TGI [35]: > 100 µM
- TGI [36]: > 100 µM
- TGI [37]: > 100 µM
- TGI [38]: > 100 µM
- TGI [39]: > 100 µM
- TGI [40]: 75.9 µM
- TGI [41]: > 100 µM
- TGI [42]: > 100 µM
- TGI [43]: > 100 µM
- TGI [44]: 79.5 µM
- TGI [45]: > 100 µM
- TGI [46]: 83.3 µM
- TGI [47]: > 100 µM
- TGI [48]: > 100 µM
- TGI [49]: 97.1 µM
- TGI [50]: > 100 µM
- TGI [51]: > 100 µM
- TGI [52]: 33.8 µM
- TGI [53]: > 100 µM
- TGI [54]: > 100 µM
- TGI [55]: 57.9 µM
- TGI [56]: 87.5 µM
- TGI [57]: 98.7 µM

Structure (SMILES): COc1ccc2c(c1)[C@@H]1c3cc(OC)c(OC)cc3CCN1CCC2
- TGI [1]: > 100 µM
- TGI [2]: > 100 µM
- TGI [3]: > 100 µM
- TGI [4]: > 100 µM
- TGI [6]: > 100 µM
- TGI [7]: > 100 µM
- TGI [8]: > 100 µM
- TGI [9]: > 100 µM
- TGI [58]: > 100 µM
- TGI [10]: > 100 µM
- TGI [11]: > 100 µM
- TGI [12]: > 100 µM
- TGI [13]: > 100 µM
- TGI [14]: > 100 µM
- TGI [15]: > 100 µM
- TGI [16]: > 100 µM
- TGI [17]: > 100 µM
- TGI [18]: > 100 µM
- TGI [19]: > 100 µM
- TGI [20]: > 100 µM
- TGI [21]: > 100 µM
- TGI [22]: > 100 µM
- TGI [23]: > 100 µM
- TGI [24]: > 100 µM
- TGI [25]: > 100 µM
- TGI [26]: > 100 µM
- TGI [27]: > 100 µM
- TGI [28]: > 100 µM
- TGI [29]: > 100 µM
- TGI [30]: > 100 µM
- TGI [31]: > 100 µM
- TGI [32]: > 100 µM
- TGI [33]: > 100 µM
- TGI [34]: > 100 µM
- TGI [35]: > 100 µM
- TGI [36]: > 100 µM
- TGI [37]: > 100 µM
- TGI [38]: > 100 µM
- TGI [39]: > 100 µM
- TGI [40]: > 100 µM
- TGI [41]: > 100 µM
- TGI [42]: > 100 µM
- TGI [43]: > 100 µM
- TGI [44]: > 100 µM
- TGI [45]: > 100 µM
- TGI [46]: > 100 µM
- TGI [47]: > 100 µM
- TGI [48]: > 100 µM
- TGI [49]: > 100 µM
- TGI [50]: > 100 µM
- TGI [51]: > 100 µM
- TGI [52]: > 100 µM
- TGI [53]: > 100 µM
- TGI [54]: > 100 µM
- TGI [55]: > 100 µM
- TGI [56]: > 100 µM
- TGI [57]: > 100 µM

Structure (SMILES): COC(=O)[C@@H]1C[C@@]23CCCN4CC[C@@]5(c6cccc(OC)c6N(C=O)[C@]15CC2)[C@@H]43
- TGI [1]: > 100 µM
- TGI [2]: > 100 µM
- TGI [3]: > 100 µM
- TGI [4]: > 100 µM
- TGI [5]: > 100 µM
- TGI [6]: > 100 µM
- TGI [59]: > 100 µM
- TGI [7]: > 100 µM
- TGI [8]: > 100 µM
- TGI [9]: > 100 µM
- TGI [58]: > 100 µM
- TGI [10]: > 100 µM
- TGI [11]: > 100 µM
- TGI [12]: > 100 µM
- TGI [13]: > 100 µM
- TGI [14]: > 100 µM
- TGI [15]: > 100 µM
- TGI [16]: > 100 µM
- TGI [17]: > 100 µM
- TGI [18]: > 100 µM
- TGI [19]: > 100 µM
- TGI [20]: > 100 µM
- TGI [21]: > 100 µM
- TGI [22]: > 100 µM
- TGI [23]: > 100 µM
- TGI [24]: > 100 µM
- TGI [25]: > 100 µM
- TGI [26]: > 100 µM
- TGI [27]: > 100 µM
- TGI [28]: > 100 µM
- TGI [29]: > 100 µM
- TGI [30]: > 100 µM
- TGI [31]: > 100 µM
- TGI [32]: > 100 µM
- TGI [33]: > 100 µM
- TGI [34]: > 100 µM
- TGI [35]: > 100 µM
- TGI [36]: > 100 µM
- TGI [37]: > 100 µM
- TGI [38]: > 100 µM
- TGI [39]: > 100 µM
- TGI [40]: > 100 µM
- TGI [41]: > 100 µM
- TGI [42]: > 100 µM
- TGI [43]: > 100 µM
- TGI [44]: > 100 µM
- TGI [45]: > 100 µM
- TGI [46]: > 100 µM
- TGI [47]: > 100 µM
- TGI [48]: > 100 µM
- TGI [49]: > 100 µM
- TGI [50]: > 100 µM
- TGI [52]: > 100 µM
- TGI [53]: > 100 µM
- TGI [54]: > 100 µM
- TGI [55]: > 100 µM
- TGI [56]: > 100 µM
- TGI [57]: > 100 µM

Reference: PubChem BioAssay (NCI)
